The values that follow come from patent US10752584B2 (EMORY UNIVERSITY, priority 2016, dated 2020).

Molecules are shown by their SMILES. Bounds are passed on as bounds.

Common to all, as to format: cell-based
Series [1] can be described thus: Cellular toxicity assay in human PBM cells. Particulars: human, human PBM cells, read-out: Cytotoxicity. In outline:
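Compound toxicity was tested in cultured cells, with cycloheximide as positive cytotoxic control and solvent-exposed untreated cells as negative control. Cytotoxicity IC50 came from the concentration-response curve by the median effective method.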

The subject of series [2] is mitochondrial DNA (COXII gene) in HepG2 cells. The experiment in a line: Mitochondrial toxicity assay in HepG2 cells: mitochondrial DNA. The source says: A real-time PCR assay to accurately quantify mitochondrial DNA content has been developed (see Stuyver L J, Lostia S, Adams M, Mathew J S, Pai B S, Grier J, Tharnish P M, Choi Y, Chong Y, Choo H, Chu C K, Otto M J, Schinazi R F. Antiviral activities and cellular toxicities of modified 2′,3′-dideoxy-2′,3′-didehydrocytidine analogs. Antimicrob. Agents Chemother. 2002; 46: 3854-60). This assay was used in all studies described in this application that determine the effect of compounds on mitochondrial DNA content. In this assay, low-passage-number HepG2 cells were seeded at 5,000 cells/well in collagen-coated 96-well plates. Test compounds were added to the medium to obtain final concentrations of 0 μM, 0.1 μM, 10 μM and 100 μM. On culture day 7, cellular nucleic acids were prepared by using commercially available columns (RNeasy 96 kit; Qiagen). […] The mitochondrial cytochrome c oxidase subunit II (COXII) gene and the β-actin or rRNA gene were amplified from 5 μl of the eluted nucleic acids using a multiplex Q-PCR protocol with suitable primers and probes for both target and reference amplifications. For COXII the following sense, probe and antisense primers were used, respectively: 5′-TGCCCGCCATCATCCTA-3′, 5′-tetrachloro-6-carboxyfluorescein-[…]-TAMRA-3′ and 5′-[…]-3′. For exon 3 of the β-actin gene (GenBank accession number E01094) the sense, probe, and antisense primers are 5′-GCGCGGCTACAGCTTCA-3′, 5′-6-[…]-3′ and 5′-[…]-3′, respectively. The primers and probes for the rRNA gene are commercially available from Applied Biosystems. Since equal amplification efficiencies are obtained for all genes, the comparative CT method was used to investigate potential inhibition of mitochondrial DNA synthesis. The comparative CT method uses arithmetic formulas in which the amount of target (COXII gene) is normalized to the amount of an endogenous reference (the β-actin or rRNA gene) and is relative to a calibrator (a control with no drug at day 7). The arithmetic formula for this approach is given by 2−ΔΔCT, where ΔΔCT is (CT for average target test sample CT for target control)−(CT for average reference test−CT for reference control) (see Johnson M R, K Wang, J B Smith, M J Heslin, R B Diasio. Quantitation of dihydropyrimidine dehydrogenase expression by real-time reverse transcription polymerase chain reaction. Anal. Biochem. 2000; 278:175-184). A decrease in mitochondrial DNA content in cells grown in the presence of drug indicated mitochondrial toxicity.
The effect of compounds 7 and 9 on the levels of mitochondrial and nuclear DNA, and lactic acid production was evaluated in HepG2 cells (14-day assay), and the data is tabulated below in Table 2: […]

The test system of another series is wild type HBV. The experiment in a line: Anti-HBV assay in AD-38 cell line. Particulars: Hepatitis B virus, AD-38 cells, HBV in culture supernatant.

Turning to `C#CCNC(=O)C(=O)c1c(C)c(C(=O)Nc2ccc(F)c(F)c2)n(C)c1C` [Compound 7a, 4-[(Propargylamino)(oxo)acetyl]-N-(3,4-difluorophenyl)-1,3,5-trimethyl-1H-pyrrole-2-carboxamide], in series [1], the CC50 is > 100000 nM. Moreover, the inhibition at 10 µM in series [2] (Homo sapiens, HepG2, 336 h, read-out: % inhibition MtDNA) is < 1%. The 50% inhibitory concentration (IC50) in series [2] (Homo sapiens, HepG2, 336 h, read-out: IC50 MtDNA) is > 50000 nM. Also, the “MtDNA (% of control)” value in series [2] (human, 14 day, 10 μM) was 110 (100-121) % of control. The concentration for a half-maximal effect (EC50) in the series on wild type HBV (read-out: Anti-HBV activity EC50) was 1 to 9 nM. Besides, the EC90 in the series on wild type HBV (read-out: Anti-HBV activity EC90) was in the range of 10 to 90 nM.

As a reminder, the inhibition is the change of the read-out against control, counted positive when it falls. As usually defined, the IC50 is the concentration that gives 50% inhibition. In general, EC50 refers to the concentration giving half of the maximal effect. Broadly, the EC90 is the point of the concentration-response curve where the effect stands at 90%.
